In paper PMC12636028, “Rate-Tunable, Metal-Mediated Amide Bond Cleavage for the Controlled Release of Pharmaceuticals” (Journal of the American Chemical Society, 2025):
Like-named read-outs stand apart in the source and are kept apart here. Blank lines part the entries; values can stand above or below the substance they belong to.

Assays:
[1] = cleavage assay of cold (natural metal) model tripeptide complexes, monitored by HPLC; type: physicochemical; details: for kobs: Ga complex, pseudo first-order
Source text: Following our previous work focused on N, O acyl shift compatible chelate conjugates, we originally sought to accelerate amide bond cleavage by N-methylation, to enhance the peptide’s leaving group character. We initiated the study by synthesis of a model tripeptide sequence which is capped at the N-terminus by the aza-macrocyclic 1,4,7-triazacyclononane-1,4,7-triacetic acid (NOTA) chelator previously identified as compatible with MMAAC. To this end, tripeptides with the sequence NO2A-X-G-W-NH2 (where X represents the variable complex adjacent amino acid) were constructed. Tryptophan (W) was incorporated as a spectroscopic handle for HPLC monitoring due to its characteristic absorbance at 280 nm, while glycine (G) was included as a short spacer amino acid to minimize the steric influence of W on the metal chelate. Subsequently, chelation with Ga^3+ yielded the corresponding model tripeptide metal complex, [Ga(NO2A)]^+-X-G-W-NH2. The Ga^3+ ion was selected as the gold-standard metal ion since it effectively triggered bond cleavage in the Ser model tripeptide in prior studies, but also formed a thermodynamically and kinetically inert, in vivo compatible metal complex. Following successful complexation and purification, the pH and reaction temperature of the metal complex solution were adjusted to pH 7.4 and 80 °C to initiate cleavage at a readily observable rate (Figure A). Reaction progress was monitored and quantified using high-performance liquid chromatography and mass spectrometry (HPLC-MS, Figure B,C). In the absence of a metal ion, all model tripeptides remained intact at all conditions and temperatures tested (Figures S113–S121). […] In the liquid chromatogram, a second peak with a longer retention time, with the same mass as the reactant, was observed. Previously, we hypothesized that this peak correlated to an intramolecular rearrangement prior to the subsequent amide bond cleavage as part of the N, O-acyl shift reaction.
3 Complex synthesis and characterization
3.1 General Complexation Protocol and Cleavage Assay Procedure
A 5 mg aliquot of the compound, 10-25, was dissolved in 500 μL of room-temperature distilled water.
Two equivalents of the natGa3+salt were added to the solution, which was left to react for 1 hour under room temperature. Full complexation was confirmed by LCMS. The complex was then purified via Sep-Pak C18 short cartridge. The concentration was determined by ICP-OES. The complexes were further characterized via HPLC and HR-ESI-MS.
Cleavage of the cold model tripeptide complexes (0.75 mM, determined by ICP-OES) was observed under 80 °C and pH 7.4. Aqueous buffer solutions were prepared using 10 mM NaOAc (pH 4.5), 10 mM […]
The complex was formed in pH 4.5 10 mM NaOAc buffer under room temperature. An aliquot of the complex was placed in an aqueous solution of the desired pH and incubated for 24 hours at 80 °C. The reaction was monitored via analytical HPLC (Method A). […]
natGallium 2,2'-(7-(2-(benzylamino)-2-oxoethyl)-1,4,7-triazonane-1,4-diyl)diacetic acid, Ga(26). […]
The concentration of Ga(NO3)3 was determined by ICP-OES. The pH of the solution was adjusted to pH = 5 by adding 4 equivalents of 1 M KOH solution. […]
natGallium 2,2'-(7-(2-(benzyl(methyl)amino)-2-oxoethyl)-1,4,7-triazonane-1,4-diyl)diacetic acid, [Ga(27)]ClO4. A 15 mg aliquot of compound 27 was dissolved in 500 μL of room temperature distilled […]
water. […]

[2] = type: in vitro ADME; details: mouse, plasma
Source text: (§1) The cleavage of the radiolabeled conjugates was monitored
(§2) tube. […] After centrifugation at […]

[3] = type: physicochemical; details: buffer, pH 7.4
Source text: as §1, §2

[4] = cleavage assays in H2O and D2O for kinetic isotopic effect; type: physicochemical; details: Ga complex 0.75 mM, pH 7.4 HEPES, 80 °C
Source text: Therefore, we conducted additional Kinetic isotopic effect (KIE) measurements for Met (15) and ^NMeMet (18) conjugates, which were chosen to avoid alternative reaction mechanisms. Our experiments determined KIE values (1.46 for Met, 2.81 for ^NMeMet) that imply a secondary KIE, where the proton transfer is not rate-limiting (Figures S262–S265). […] Reaction rates in phosphate buffered saline (PBS) were accelerated, motivating investigation of biologically relevant systems.
5.3 Cleavage assays in H2O and D2O for kinetic isotopic effect measurement Cold cleavage assays of [Ga(15)]+ were conducted in H2O and D2O to investigate the kinetic isotopic effects. In an Eppendorf tube, Ga complexes (0.75 mM) were initially prepared in H2O according to general complexation protocol Section 3.1. The solvent was lyophilized, and the complexes were redissolved in D2O. To minimize residual H2O, the D2O was lyophilized and redissolved three times. The Ga complexes were then redissolved in D2O to a final concentration of 0.75 mM. The solution was buffered to pH 7.4 by adding pH 7.4 HEPES buffer. Cleavage reactions were performed at 80 °C and monitored by analytical HPLC.
Figure S262. Schematic description of preparation and direct complexation procedure of [natGa(15)]+.
Analytical HPLC chromatograms showing autolytic release of the product, natGa-NOTA, in H2O. The kinetics data was fit using Yt = -kt+Y0 in Excel, where Yt represents the ln([concentration of intact species]) in mM, k represents the pseudo first-order reaction rate in hour-1, t represents the incubation time in hour, and Y0 presents the ln([initial concentration of intact species]) in mM.
(1 picture or pasted object on this page, not shown here)
Cold cleavage assays of [Ga(19)]+ were conducted in H2O and D2O to investigate the kinetic isotopic […]
Figure S264. Schematic description of preparation and direct complexation procedure of [natGa(19)]+.

[5] = for half-life of model tripeptide: buffer, pH 7.4; for autolytic release of [67Ga]Ga(NOTA): 67Ga-radiolabeled
Description: 4.1 Radiolabeling with 68Ga and Cleavage Assay in HEPES buffer
68Ga-chloride was obtained from the University of Wisconsin Radiopharmaceutical Production Facility, at
an average specific activity of 20 mCi/mL. For radio-labeling of model tripeptides and Ahx-KuE peptide
conjugates, a 35 μL aliquot containing 0.7 mCi of 68GaCl3 was added to the ligand (10 nmol, 265 µL) in
0.067 M of sodium acetate (NaOAc) buffer pH 4.5. Radiolabeling was completed after 15 minutes at
room temperature. The pH of the solution was then adjusted to 7.4 by pH 7.4 1 M HEPES buffer.
radiolabeled conjugates were further characterized with radio-HPLC; if the radiochemical yield was
<98%, a chromatographic purification of the crude radiolabeling mixture was performed. The cleavage of
the radiolabeled conjugates was monitored via radio-HPLC at 80 °C and pH 7.4.
67Ga-citrate was purchased from Jubilant Radiopharma at an average specific activity of 140.0 MBq/mL.
The 67Ga-citrate solution was first converted to 67GaCl using an established solid phase extraction
protocol. The resulting converted 67GaCl3 fraction with the specific activity of 962 MBq/mL was used for
radiolabeling. For radio-labeling of model tripeptides and Ahx-KuE peptide conjugates, a 25 μL aliquot
containing 0.45 mCi of 67GaCl3 was added to the ligand (10 nmol, 110 µL) in 0.15 M of sodium acetate
(NaOAc) buffer pH 4.5. Radiolabeling was completed after 10 minutes at room temperature. The pH of
the solution was then adjusted to 7.4 by adding pH 7.4 1 M HEPES buffer (final concentration: 0.25 M).
The radiolabeled conjugates were further characterized with radio-HPLC; if the radiochemical yield was
the radiolabeled conjugates was monitored via radio-HPLC at 37 °C and 80 °C at pH 7.4.
For radio-labeling of model tripeptides and Ahx-KuE peptide conjugates, a 25 μL aliquot containing 0.3
mCi of 67GaCl3 was added to the ligand (10 nmol, 110 µL) in 0.15 M of sodium acetate (NaOAc) buffer
pH 4.5. Radiolabeling was completed after 10 minutes at room temperature. The radiolabeled complexes
were further characterized by radio-HPLC. The pH of the solution was then adjusted to 7.4 by adding pH
7.4 1M HEPES buffer. Into the buffered mixture was added equal volume of mouse plasma (buffered
radiolabeled complex : mouse plasma 1:1). The cleavage of the radiolabeled conjugates was monitored
via radio-HPLC at 37 °C. At each time point, an aliquot of 20 – 40 µL sample was removed from the
tube. Plasma protein was precipitated by adding 20 – 40 µL of cold acetonitrile. After centrifugation at
4000 rpm for 10 minutes, the supernatant was collected and diluted in 40 – 70 µL H2O for radio-HPLC

half-life of model tripeptide [2]: 151 h
half-life of model tripeptide [3]: 0.92 h
half-life of model tripeptide [5]: 28.1 h
Substance: 68Gallium 2,2'-(7-(2-(((R)-1-((2-(((S)-1-amino-3-(1H-indol-3-yl)-1-oxopropan-2-yl)amino)-2-oxoethyl)amino)-4-(methylthio)-1-oxobutan-2-yl)(methyl)amino)-2-oxoethyl)-1,4,7-triazonane-1,4-diyl)diacetate [[Ga(18)]+]
krel (relative rate enhancement versus 25 mM pH 7.4 HEPES) ([1]; 25 mM HEPES, pH 7.4, 80 °C): 1
krel (relative rate enhancement versus 25 mM pH 7.4 HEPES) ([1]; 25 mM PBS, pH 7.4, 80 °C): 4.4
krel (relative rate enhancement versus 25 mM pH 7.4 HEPES) ([1]; 25 mM PIPES, pH 7.4, 80 °C): 1.13
krel (relative rate enhancement versus 25 mM pH 7.4 HEPES) ([1]; 250 mM HEPES, pH 7.4, 80 °C): 2.44
kobs ([1]; 25 mM HEPES, pH 7.4, 80 °C): 0.45 h⁻¹
kobs ([1]; 25 mM PBS, pH 7.4, 80 °C): 1.98 h⁻¹
kobs ([1]; 25 mM PIPES, pH 7.4, 80 °C): 0.51 h⁻¹
kobs ([1]; 250 mM HEPES, pH 7.4, 80 °C): 1.10 h⁻¹
pseudo first-order reaction rate in D2O ([4]; D2O): 0.16 h⁻¹
pseudo first-order reaction rate in H2O ([4]; H2O): 0.45 h⁻¹
KIE (kinetic isotopic effect) ([4]; H2O vs D2O): 2.81

half-life of model tripeptide [2]: 182 h
half-life of model tripeptide [3]: 5.20 h
half-life of model tripeptide [5]: 365 h
Substance: 68Gallium 2,2'-(7-(2-(((R)-1-((2-(((S)-1-amino-3-(1H-indol-3-yl)-1-oxopropan-2-yl)amino)-2-oxoethyl)amino)-3-hydroxy-1-oxopropan-2-yl)amino)-2-oxoethyl)-1,4,7-triazonane-1,4-diyl)diacetate [[Ga(13)]+]

cleavage after 6 h ([1]; natGa complex, pH 7.4, 80 °C): 50%
Substance: 68Gallium 2,2'-(7-(2-(((2R,3S)-1-((2-(((S)-1-amino-3-(1H-indol-3-yl)-1-oxopropan-2-yl)amino)-2-oxoethyl)amino)-3-hydroxy-1-oxobutan-2-yl)amino)-2-oxoethyl)-1,4,7-triazonane-1,4-diyl)diacetate [[Ga(14)]+]

cleaved after 1 h ([1]; natGa complex, pH 7.4, 80 °C, after 1 h): 100%
half-life of model tripeptide [2]: 6.12 h
half-life of model tripeptide [3]: 0.22 h
half-life of model tripeptide [5]: 3.65 h
Substance: 68Gallium 2,2'-(7-(2-(((R)-1-((2-(((S)-1-amino-3-(1H-indol-3-yl)-1-oxopropan-2-yl)amino)-2-oxoethyl)amino)-3-hydroxy-1-oxopropan-2-yl)(methyl)amino)-2-oxoethyl)-1,4,7-triazonane-1,4-diyl)diacetate [[Ga(16)]+]

hydrolysis of the Ga complex ([1]; pH 4.5, 80 °C): hydrolyzed
hydrolysis of the Ga complex ([1]; pH > 5, 80 °C): inert
half-life of model tripeptide [2]: not observed
half-life of model tripeptide [3]: not obser ved
autolytic release of [67Ga]Ga(NOTA) ([5]; 37 °C and pH 7.4): no significant autolytic release
autolytic release of [67Ga]Ga(NOTA) ([5]; 80 °C and pH 7.4): no significant autolytic release
half-life of model tripeptide [5]: not observed
Substance: 68Gallium (R)-2,2'-(7-(2-((2-((2-((1-amino-3-(1H-indol-3-yl)-1-oxopropan-2-yl)amino)-2-oxoethyl)amino)-2-oxoethyl)amino)-2-oxoethyl)-1,4,7-triazonane-1,4-diyl)diacetate [[Ga(10)]+]

cleavage after 6 h ([1]; natGa complex, pH 7.4, 80 °C): 20%
Substance: 68Gallium 2,2'-(7-(2-(((R)-1-((2-(((S)-1-amino-3-(1H-indol-3-yl)-1-oxopropan-2-yl)amino)-2-oxoethyl)amino)-1-oxopropan-2-yl)amino)-2-oxoethyl)-1,4,7-triazonane-1,4-diyl)diacetate [[Ga(12)]+]
